Measured values: ChEMBL document CHEMBL1133860, “Synthesis and biological evaluation of a series of novel N- or O-fluoroalkyl derivatives of tropane: potential positron emission tomography (PET) imaging agents for the dopamine transporter” (Bioorg Med Chem Lett, 2001)
pKi: −log10 of the molar value.

Experiments:
[1] = target: Sodium-dependent dopamine transporter (Rattus norvegicus, UniProt P23977); experiment: Ability to displace [3H]- beta-CIT from Dopamine transporter in rat striatal homogenate
[2] = system: Monoamine transporters; Norepinephrine & dopamine; experiment: Selectivity for DAT determined as ratio of binding affinity for NET to that for DAT; type: protein assay
[3] = system: Monoamine transporters; serotonin & dopamine; experiment: Selectivity for DAT determined as ratio of binding affinity for SERT to that for DAT; type: protein assay
[4] = target: Sodium-dependent serotonin transporter (Rattus norvegicus, UniProt P31652); experiment: Ability to displace [3H]- paroxetine from Serotonin transporter in rat cerebral cortical homogenate
[5] = target: Norepinephrine transporter (Rattus norvegicus, UniProt Q9WTR4); experiment: Ability to displace [3H]- nisoxetin from Norepinephrine transporter in rat cerebral cortical homogenate
Norepinephrine transporter, sequence (Q9WTR4 whole entry): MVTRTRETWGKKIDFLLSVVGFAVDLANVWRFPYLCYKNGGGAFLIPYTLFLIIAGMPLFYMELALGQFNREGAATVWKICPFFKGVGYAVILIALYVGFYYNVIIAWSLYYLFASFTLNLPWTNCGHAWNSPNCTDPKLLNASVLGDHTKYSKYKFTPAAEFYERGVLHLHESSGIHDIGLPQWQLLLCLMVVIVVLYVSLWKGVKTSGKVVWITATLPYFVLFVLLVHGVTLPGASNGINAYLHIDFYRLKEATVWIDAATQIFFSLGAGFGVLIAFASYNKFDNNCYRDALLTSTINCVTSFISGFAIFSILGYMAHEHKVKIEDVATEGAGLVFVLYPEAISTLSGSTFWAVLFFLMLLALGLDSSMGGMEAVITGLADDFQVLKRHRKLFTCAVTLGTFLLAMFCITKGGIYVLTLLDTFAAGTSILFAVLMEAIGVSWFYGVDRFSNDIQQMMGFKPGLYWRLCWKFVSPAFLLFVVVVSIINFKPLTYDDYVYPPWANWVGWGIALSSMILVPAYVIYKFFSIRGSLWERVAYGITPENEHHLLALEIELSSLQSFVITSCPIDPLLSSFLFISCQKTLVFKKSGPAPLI

Sodium-dependent dopamine transporter, sequence (P23977 whole entry): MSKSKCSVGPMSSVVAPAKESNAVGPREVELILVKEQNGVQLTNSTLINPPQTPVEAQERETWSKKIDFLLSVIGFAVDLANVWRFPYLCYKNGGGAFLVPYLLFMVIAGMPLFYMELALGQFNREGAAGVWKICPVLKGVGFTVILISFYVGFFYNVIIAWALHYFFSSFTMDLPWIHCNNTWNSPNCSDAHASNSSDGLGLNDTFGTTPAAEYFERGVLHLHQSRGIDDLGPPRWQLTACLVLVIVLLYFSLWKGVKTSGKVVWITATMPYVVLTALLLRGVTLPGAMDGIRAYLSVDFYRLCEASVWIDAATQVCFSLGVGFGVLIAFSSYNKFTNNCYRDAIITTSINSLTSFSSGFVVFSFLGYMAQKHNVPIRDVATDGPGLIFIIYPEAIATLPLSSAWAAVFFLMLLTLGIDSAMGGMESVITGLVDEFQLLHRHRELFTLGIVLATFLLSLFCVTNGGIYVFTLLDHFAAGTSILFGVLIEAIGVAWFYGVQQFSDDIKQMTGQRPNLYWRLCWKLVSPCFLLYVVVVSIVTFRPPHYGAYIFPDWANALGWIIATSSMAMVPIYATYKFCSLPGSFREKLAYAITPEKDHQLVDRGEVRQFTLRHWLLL
Sodium-dependent serotonin transporter, sequence (P31652 whole entry): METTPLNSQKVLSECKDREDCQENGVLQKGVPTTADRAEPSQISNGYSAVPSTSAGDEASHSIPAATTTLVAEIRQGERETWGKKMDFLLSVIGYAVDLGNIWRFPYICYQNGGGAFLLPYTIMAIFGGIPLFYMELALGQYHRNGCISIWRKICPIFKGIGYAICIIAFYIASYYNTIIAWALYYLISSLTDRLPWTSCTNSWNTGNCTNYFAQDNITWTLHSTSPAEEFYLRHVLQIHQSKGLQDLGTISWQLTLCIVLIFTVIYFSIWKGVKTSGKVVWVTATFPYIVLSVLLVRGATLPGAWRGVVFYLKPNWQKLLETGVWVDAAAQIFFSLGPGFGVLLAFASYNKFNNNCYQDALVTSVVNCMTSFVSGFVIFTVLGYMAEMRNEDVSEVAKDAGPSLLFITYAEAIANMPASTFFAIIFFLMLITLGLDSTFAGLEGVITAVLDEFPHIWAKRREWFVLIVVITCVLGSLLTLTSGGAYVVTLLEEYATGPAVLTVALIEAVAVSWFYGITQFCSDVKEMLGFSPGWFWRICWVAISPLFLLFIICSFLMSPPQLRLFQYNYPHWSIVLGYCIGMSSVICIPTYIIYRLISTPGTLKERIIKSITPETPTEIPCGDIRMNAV

Structure (SMILES)	pKi [1]	Selectivity ratio [2]	Selectivity ratio [3]	pKi [4]	pKi [5]
COC(=O)C1C2CCC(CC1c1ccc(I)cc1)N2 (configuration not stated)	9.19	2.9	0.1	10.22	8.73
COC(=O)C1C(c2ccc(C)cc2)CC2CCC1N2CCF (configuration not stated)	7.49	8.4	11.7	6.43	6.57
COC(=O)C1C(c2ccc(Br)cc2)CC2CCC1N2CCCF (configuration not stated)	8.48	58.9	10.9	7.44	6.71
COC(=O)C1C(c2ccc(C)cc2)CC2CCC1N2CCCF (configuration not stated)	7.42	32.1	34.9	5.88	5.92
COC(=O)C1C(c2ccc(I)cc2)CC2CCC1N2CCCF (configuration not stated)	8.08	7.6	0.2	8.77	–
O=C(OCCF)C1C(c2ccc(I)cc2)CC2CCC1N2CCCF (configuration not stated)	8.06	83	1.5	7.88	6.14
CN1C2CCC1C(C(=O)OCCF)C(c1ccc(I)cc1)C2 (configuration not stated)	9.03	112	1.1	8.78	6.76
COC(=O)[C@@H]1C2CC[C@H](C[C@@H]1c1ccc(I)cc1)N2C	8.88	2.1	0.4	–	–
CN1C2CCC1C(C(=O)OCCCF)C(c1ccc(I)cc1)C2 (configuration not stated)	8.81	112	1.1	8.78	6.76
Cc1ccc(C2CC3CCC(C2C(=O)OCCCF)N3C)cc1 (configuration not stated)	8.14	36.3	45.3	6.49	6.59
